# Residues, ends and D or L forms follow the SMILES beside them. *: point of attachment. Cbz = O=C(OCc1ccccc1)*
# Experiments:
# [1] = system: NFκB nuclear translocation in RA-FLS; test: NFκB nuclear translocation after TNF-α stimulation of RA-FLS; assay type: cell-based; settings: TNF-α 5 ng/mL; rhPRG4 200 μg/mL or MG 132 3 μM; 24 hours; p<0.001
# Description: RA-FLS (400,000 cells/well) were cultured and stimulated with TNF-α (5 ng/mL) and treated with rhPRG4 (200 μg/mL) or a commercially available NFκB translocation inhibitor MG 132 (3 μM; Tocris Bioscience) for 24 hours in serum free media. Cells were harvested and nuclear extraction was performed using a commercially available kit (Thermo scientific). Total protein was measured using a micro bicinchonic acid (BCA) kit (Thermo scientific) and 3 μg of nuclear extract of each experimental group were used. The p50 subunit of NFκB was detected in the nuclear extract using a commercially available NFκB DNA binding assay kit (Abcam). Data is presented as the number of fold change in NFκB nuclear levels compared to untreated control. To evaluate whether inhibition of NFκB translocation by rhPRG4 is CD44 dependent, the above experiment was repeated in the presence or absence of IM7 CD44 antibody (1:1,000 dilution). Data represents the average of 3 independent experiments with at least triplicate wells per treatment.
# CD44 = target: T1, CD44 (Homo sapiens, UniProt P16070); test: CD44 binding of sialidase-A / O-glycosidase digested rhPRG4, direct ELISA; settings: coating 30 μg/mL; digestion 16 hours at 37° C.
# T1 construct: purchased R & D systems
# Description: rhPRG4 was digested using sialidase A (Prozyme, USA), O-glycosidase (New England Biolabs, USA) or a combination of sialidase A and O-glycosidase for 16 hours at 37° C. In the sialidase A digestion, 12 μL of the enzyme (1 U/200 μL) was added to rhPRG4 in a total reaction volume of 180 μL and a rhPRG4 final concentration of 300 μg/mL. In the O-glycosidase digestion, 4.8 μL of the enzyme (40 million units/mL) was added to rhPRG4 in a total reaction volume of 180 μL and a rhPRG4 final concentration of 300 μg/mL under non-denaturing conditions. In the sialidase-A and O-glycosidase digestion, the enzymes were used in volumes identical to the ones stated above and incubated with rhPRG4 in a total reaction volume and final rhPRG4 concentration as stated above. The effect of sialidase-A and O-glycosidase digestions on rhPRG4 apparent molecular weight was determined by SDS-PAGE using 4-12% Bis-Tris gel (NuPage, life technologies, USA). A total of 20 μL of rhPRG4 or enzyme-digested rhPRG4 was run under reducing conditions ([…] for 60 min) followed by staining using Gelcode Blue Stain (Thermo Scientific, USA). Binding of enzymatically digested rhPRG4 to CD44 was compared to undigested rhPRG4 using the direct ELISA approach described above and using an rhPRG4 coating concentration of 30 μg/mL. Data represents the average of 4 independent experiments, each with triplicate wells per group.
# [2] = system: Rheumatoid arthritis fibroblast-like synoviocytes (RA-FLS); test: Cytokine-induced RA-FLS proliferation (MTS); assay type: cell-based; settings: 48 hours, p<0.05
# Description: Rheumatoid arthritis fibroblast-like synoviocytes (RA-FLS; Cell Applications, USA) between 3rd and 6th passages were used to conduct these experiments. In sterile 96 well plates, RA-FLS (5,000 cells per well in 80 μL) were cultured in DMEM supplemented with 1% FBS and 1 mM pyruvate and stimulated with recombinant human interleukin-1 beta (IL-1β; R & D systems) at 20 ng/mL or tumor necrosis factor alpha (TNF-α; R & D systems) at 5 ng/mL for 48 hours at 37° C. in the absence or presence of rhPRG4 or HMW HA at a final concentration of 20, 40 or 80 μg/mL. The total volume in each well was 200 μL. Cell proliferation, an indication of inflammation, was determined using the CellTiter 96 AQueous one solution cell proliferation assay (MTS; Promega, USA) and the 490 nm absorbance was determined. Data is presented as the number of fold change in 490 nm absorbance compared to untreated control RA-FLS. The data represents the average of 3 independent experiments with at least triplicate wells per treatment. To evaluate the contribution of CD44 to the effect of rhPRG4 or HMW HA, RA-FLS were stimulated with IL-1β or TNF-α as described above. Treatment with rhPRG4 or HMW HA was conducted to a final concentration of 80 μg/mL in the absence or presence of IM7 (Abcam, USA), a CD44 neutralizing antibody that recognizes a conserved epitope across all CD44 isoforms (Samson et al., Exp Eye Res, 2014; 127C:14-19), at a final dilution of 1:200. The total volume in each well was 200 μl. Cell proliferation across the experimental groups was determined as described above and data is presented as the number of fold change in 490 nm absorbance compared to untreated control RA-FLS. The data represents the average of 3 independent experiments with at least triplicate wells per treatment.
# CD44 IgG1Fc [3] = target: T2, CD44 IgG1Fc (Homo sapiens, UniProt P16070); test: Direct ELISA: binding of coated macromolecules to CD44-IgG1Fc versus IgG1Fc; settings: wells coated at 400 μg/mL; CD44-IgG1Fc or IgG1Fc 1 μg/mL; p<0.001 where significant
# T2 construct: purchased R & D systems
# Description: High-binding microtiter plates (Corning, Sigma Aldrich, USA) were coated with rhPRG4 (Mr≅240 KDa), high molecular weight HA (HMW HA; Mr≈1,500 KDa) (R & D System, USA), medium molecular weight HA (MMW HA; Mr≈300 KDa) (R & D System) and vitronectin (Mr≅75 KDa) (Sigma Aldrich) at 400 μg/mL in PBS buffer (100 μL per well) overnight at 4° C. rhPRG4 is a full-length product produced by CHO-M cells (Lubris, Framingham, Mass., USA). Following washing with PBS+0.1% Tween 20, wells were blocked with 2% bovine serum albumin (BSA; 300 μL per well) for at least 2 hours at room temperature. CD44-IgG1Fc (R & D systems) or IgG1Fc (R & D systems), each at 1 μg/mL (100 μl per well), were added to the plate and incubated for 60 min at room temperature. Following washing with PBS+0.1% tween 20, anti-IgG1Fc-HRP (Sigma Aldrich) was added at 1:10,000 dilution (100 μL per well) and incubated for 60 min at room temp. Following washing with PBS+0.1% tween 20, the assay was developed using 1-step Turbo TMB ELISA reagent (ThermoScientific, USA) and absorbance was measured at 450 nm. The data represents an average of 4 independent assays, each with triplicate wells per group.
# CD44 IgG1Fc [4] = target: T2, CD44 IgG1Fc; test: Competition between rhPRG4 and HA on binding to CD44, ELISA; settings: rhPRG4 5 μg/mL
# Description: To evaluate the competition between rhPRG4 and either HMW HA or MMW HA on binding to CD44, microtiter plates were coated with either CD44 IgG1Fc or IgG1Fc at 1 μg/mL (100 μL per well) overnight at 4° C. Subsequently, wells were washed with PBS+0.1% tween 20 and wells were blocked using 2% BSA (300 μL per well) for at least 2 hours at room temperature. […] Following washing with PBS+0.1% tween 20, lubricin-specific monoclonal antibody (Mab 9G3) was added at 1:1,000 (100 μL per well) and incubated for 60 min at room temp. Following washing with PBS+0.1% tween 20, goat anti-mouse IgG-HRP (Thermo Scientific) at 1:1,000 dilution was added (100 μL per well) and incubated for 60 min at room temp. The assay was developed as described above. The absorbance values in the IgG1Fc wells were subtracted from the absorbance values in the CD44-IgG1Fc wells and the corrected absorbance values in the rhPRG4+HA groups were normalized to the absorbance values of the rhPRG4 group and data was expressed as percentage binding to CD44. The data represents an average of 4 independent assays, each with triplicate wells per group.
# [5] = system: citrated whole human blood; test: LPS challenge, inflammatory cytokines in whole blood (Biochip Array); assay type: cell-based; settings: LPS 10 μg/mL, versus saline
# Description: Lipopolysaccharides (LPS) are found in the outer membrane of Gram-negative bacteria and elicit strong immune inflammatory responses in animals. The effect of LPS challenge on the production of inflammatory cytokines was studied in citrated whole human blood using Biochip Array technology to profile the generation of various cytokines and the modulation of their production. The generation of IL2, IL4, IL6, IL8, IL10, VEGF, IFNg, TNFa, IL1a, IL1b, MCP1 and EGF was studied in citrated whole blood samples supplemented with saline (1-10 ratio) and LPS at 10 μg/mL in samples incubated for 60 minutes at 37° C. These mixtures were centrifuged and the supernatant plasma was analyzed for the […] inflammatory biomarkers using a high sensitivity cytokine array on a Randox Invesitigator Biochip reader. These studies were run in duplicate and tabulated in the form of a table and a figure. As shown in FIGS. 8A-B, supplementation of lipopolysaccharide in a 1:10 dilution in whole blood results in an increase in production of the inflammatory cytokines IL-4, IL-6, IL-8, IL-10, VEGF, TNF-α, IL1-β, and MCP-1 under the specified conditions. No changes in IL2, IFNg, and IL1b were noted.
compound,measurement,setting,value
"CC(C)C[C@@H](C=O)NC(=O)[C@H](CC(C)C)NC(=O)[C@H](CC(C)C)NC(=O)OCc1ccccc1 [MG132, reference compound] (Cbz-Leu-Leu-Leu-aldehyde)",NFκB nuclear translocation compared to TNF-α-treated RA-FLS,[1],significantly reduced
O-glycosidase digested rhPRG4: rhPRG4 digested using O-glycosidase for 16 hours at 37° C.,percentage binding to CD44 compared to untreated control (undigested rhPRG4),CD44,significant increase
hyaluronic acid [HMW HA],RA-FLS proliferation with IL-1β stimulation,"[2]; IL-1β 20 ng/mL, treatment 40 and 80 μg/mL",significantly suppressed
same,RA-FLS proliferation with TNF-α stimulation,"[2]; TNF-α 5 ng/mL, treatment 20, 40 and 80 μg/mL",did not result in suppressing
same,450 nm absorbance in the CD44-IgG1Fc group versus the IgG1Fc group,CD44 IgG1Fc [3],significantly higher
same,reduction of rhPRG4 binding to CD44 by an excess of HA,CD44 IgG1Fc [4],approximately 50%
same,effect of HA on rhPRG4's binding to CD44,"CD44 IgG1Fc [4]; HA at 0.05, 0.25, 1, p<0.05",significantly reduced
lipopolysaccharide,"production of IL-4, IL-6, IL-8, IL-10, VEGF, TNF-α, IL1-β and MCP-1","[5]; 1:10 dilution in whole blood, 60 minutes at 37° C.",increase
same,"IL2, IFNg and IL1b",[5]; 60 minutes at 37° C.,No changes
same,"percent changes in IL6, IL8, VEGF and TNFa",[5]; 60 minutes,pronounced increase
sialidase-A and O-glycosidase-digested rhPRG4: rhPRG4 digested using a combination of sialidase A and O-glycosidase,percentage binding to CD44 compared to untreated control (undigested rhPRG4),CD44,significantly higher
sialidase-A digested rhPRG4: rhPRG4 digested using sialidase A for 16 hours at 37° C.,percentage binding to CD44 compared to untreated control (undigested rhPRG4),CD44,significant increase
"vitronectin: vitronectin, Mr≅75 KDa (Sigma Aldrich), shares sequence homology with lubricin",450 nm absorbance in the CD44-IgG1Fc group versus the IgG1Fc group,CD44 IgG1Fc [3],no significant difference
